Test results reported in US20240043435A1, “TYK-2 INHIBITOR” (BEIGENE, LTD., priority 2020, published 2024).

What was measured:
[1] = target: T1, TYK2-JH2 (aa 575-869, in-house) protein (Homo sapiens, UniProt P29597); assay: TYK2-JH2 biochemical assay (HTRF probe displacement); type: binding; settings: for IC50: Biochemical assay, read-out: TYK2-JH2 IC50
T1 construct: TYK2-JH2 (aa 575-869, in-house) protein; made in house
Description: Assay A: TYK2-JH2 Biochemical Assay
Compounds disclosed herein were tested for blocking of TYK2-JH2 (aa 575-869, in-house) protein with its probe in an assay based on Homogeneous Time Resolved Fluorescence. Compound dilution is done according to the following protocol: (1) Prepare 500× compounds solution in DMSO from 500 uM by 5-fold dilution, total 10 doses were included; (2) Prepare 10× compounds solution in an assay buffer containing 20 mM HEPES, pH 7.5, 10 mM MgCl2, 0.005% BSA, 2 mM DTT, 0.015% Brij-35 by transferring 1 μl serial 500× stock solution into 49 μl assay buffer. […] of 0.2 nM recombinant TYK2-JH2 protein was pre-incubated with 1 μl of 10× serial dilution of compounds at room temperature for 0.5 hour. […] The HTRF signals (ex337 nm, em620 nm/665 nm) were read on BMG PHERAstar FS instrument. The inhibition percentage of TYK2 interaction with its probe in presence of increasing concentrations of compounds was calculated based on the ratio of fluorescence at 615 nm to that at 665 nm. The IC50 for each compound was derived from fitting the data to the four-parameter logistic equation by Dotmatics.

pSTAT5/GM-CSF = pSTAT5/GM-CSF cellular assay (JAK2 selectivity); type: cell-based; settings: for Selectivity fold (TYK2/JAK2): pSTAT5/GM-CSF IC50 over pSTAT4/IL-12 IC50
[2] = system: JAK2, TYK2/p-STAT4 (Tyr693) activated by IL-12 in NK-92 cell line; assay: IL-12-JAK2, TYK2/p-STAT4 (Tyr693) inhibition IC50 cellular assay; type: cell-based; settings: for IC50: NK92, Cellular assay, read-out: pSTAT4/IL-12 IC50
Source text: Assay C: IL-12-JAK2, TYK2/p-STAT4 (Tyr693) Inhibition IC50 Cellular Assay
To evaluate the inhibition effect of compounds disclosed herein on JAK2, TYK2/p-STAT4 (Tyr693) activated by IL-12 in NK-92 cell line, NK-92 cells were collected and washed 3 times by DPBS and resuspended in MEM-α (GIBCO, Cat #12561056) with 10% FBS (Gibco, Cat #10099, Lot #1891605), without IL-2 (R&D systems, Cat #202-IL), starved overnight. Cells were collected and resuspended in 1640 medium (phenol red free, Gibco, Cat #11835-030) with 0.1% BSA, and 12.5 μl/5×10^4/well cell suspension were seeded to the 96-well plate (Corning, Cat #3799). Then cells were treated with compounds diluted in 0.2% DMSO 1640 medium, at 37° C., 1 h. Dilution is done according to the following protocol: (1) make 500× compounds solution in DMSO from 5 mM by 4-fold dilution, total 8 doses were included; (3) make 2× compounds solution in assay medium by transferring 0.5 μl serial 500× stock solution into 125 μl assay medium; (4) 15 μl of 2× serial solution is added to cells and incubate at 37° C. for 1 h, the final compound conc. is 10000, 2500, 625, 156.25, 39, 9.8, 2.4 and 0.61 nM, respectively. After 1 h, cells were treated with 2.5 μl medium containing IL-12 at 37° C. (R&D systems, Cat #219-IL-005, final conc. 40 ng/ml), 30 min. Following cells were lysed with 7.5 μl lysis buffer at RT, shaking on shaker for 1 h. 10 μL of cell lysate were transferred to a PE 384-well Proxiplate detection plate, and 5 μL of pre-mixed Alphascreen beads were added to each well. Covered the plate with a plate sealer, span 1000 rpm for 1 min, mix, Incubated overnight at room temperature. Read on BMG PheraStar with Alphascreen protocol. IC 50 values were calculated by fitting dependent data to the four-parameter logistic model using dotmatics software. The assay was performed by using AlphaLISA SureFire Ultra p-STAT4 (Tyr693) Assay Kit—High Volume (PE, Cat #ALSU-PST4-A-HV).

T1 sequence (P29597 575-869): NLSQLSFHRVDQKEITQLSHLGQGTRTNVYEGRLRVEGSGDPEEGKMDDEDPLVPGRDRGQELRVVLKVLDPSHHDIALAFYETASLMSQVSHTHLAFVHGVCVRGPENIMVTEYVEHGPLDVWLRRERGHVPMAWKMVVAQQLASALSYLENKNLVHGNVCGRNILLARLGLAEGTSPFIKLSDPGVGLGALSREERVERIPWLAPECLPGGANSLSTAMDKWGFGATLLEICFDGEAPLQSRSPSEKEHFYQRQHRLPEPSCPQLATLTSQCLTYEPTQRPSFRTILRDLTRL

In the case of `CCn1ccc(-c2cnc(NC(C)=O)cc2Nc2cc(OCC3CC3)cc(S(C)(=O)=O)c2)n1` [Example M16, N-(4-((3-(cyclopropylmethoxy)-5-(methylsulfonyl)phenyl)amino)-5-(1-ethyl-1H-pyrazol-3-yl)pyridin-2-yl)acetamide], the IC50 [1] is reported as 0.048 nM.
In the case of `CC(=O)Nc1cc(Nc2cc(N3CC[C@H](OCCO)C3)cc(S(C)(=O)=O)n2)c(-c2ccc3c(n2)OCC(C)(C)O3)cn1` [Example Q61, (S)-N-(5-(2,2-dimethyl-2,3-dihydro-[1,4]dioxino[2,3-b]pyridin-6-yl)-4-((4-(3-(2-hydroxyethoxy)pyrrolidin-1-yl)-6-(methylsulfonyl)pyridin-2-yl)amino)pyridin-2-yl)acetamide], the IC50 [1] is reported as 0.022 nM.
Work on `CC(=O)Nc1cc(Nc2cc(C3CCN(CC(F)(F)F)CC3)cc(S(C)(=O)=O)n2)c(-c2ccc3c(n2)OCC(C)(C)O3)cn1` [Example Q60, N-(5-(2,2-dimethyl-2,3-dihydro-[1,4]dioxino[2,3-b]pyridin-6-yl)-4-((6-(methylsulfonyl)-4-(1-(2,2,2-trifluoroethyl)piperidin-4-yl)pyridin-2-yl)amino)pyridin-2-yl) acetamide] yielded an IC50 [1] of 0.059 nM.
In the case of `CC(=O)Nc1cc(Nc2cc(N3CC[C@@H](OCCO)C3)cc(S(C)(=O)=O)n2)c(-c2ccc3c(n2)OCC(C)(C)O3)cn1` [Example Q59, (R)-N-(5-(2,2-dimethyl-2,3-dihydro-[1,4]dioxino[2,3-b]pyridin-6-yl)-4-((4-(3-(2-hydroxyethoxy)pyrrolidin-1-yl)-6-(methylsulfonyl)pyridin-2-yl)amino)pyridin-2-yl) acetamide], the IC50 [1] is reported as 0.033 nM.
Molecule `Cc1cc(C)cc(Nc2cc(NCCNC(=O)CCOCCOCCOCCOCCOCCOCCNC(=O)CCCC[C@@H]3SC[C@@H]4NC(=O)N[C@@H]43)c3ncc(C(N)=O)n3n2)c1` [Probe 1, 6-((3,5-dimethylphenyl)amino)-8-((4,26-dioxo-30-((3aS,4S,6aR)-2-oxohexahydro-1H-thieno[3,4-d]imidazol-4-yl)-7,10,13,16,19,22-hexaoxa-3,25-diazatriacontyl)amino)imidazo[1,2-b]pyridazine-3-carboxamide, reference compound] has a Kd ([1]; in-house probe of the TYK2-JH2 assay) of 10 nM.
Work on `CC(=O)Nc1cc(Nc2nc(S(C)(=O)=O)ccc2OC(C)C)c(-c2ccn(C)n2)cn1` [Example J49, N-(4-((3-isopropoxy-6-(methylsulfonyl)pyridin-2-yl)amino)-5-(1-methyl-1H-pyrazol-3-yl)pyridin-2-yl)acetamide] yielded an IC50 [1] of 0.13 nM.
`CC(=O)Nc1cc(Nc2cc(O[C@H]3C[C@H](O)C3)cc(S(C)(=O)=O)c2)c(-c2ccc(C(F)(F)F)cn2)cn1` [Example F5, N-(4′-((3-((trans)-3-hydroxycyclobutoxy)-5-(methylsulfonyl)phenyl)amino)-5-(trifluoromethyl)-[2,3′-bipyridin]-6′-yl)acetamide] was tested, and the IC50 [1] was 0.061 nM.
`CC(=O)Nc1cc(Nc2cc(OC(C)C)cc(S(C)(=O)=O)c2)c(-c2ccc(F)cn2)cn1` [Example F14, N-(5-fluoro-4′-((3-isopropoxy-5-(methylsulfonyl)phenyl)amino)-[2,3′-bipyridin]-6′-yl)acetamide] gave an IC50 [1] of 0.13 nM.
Molecule `CC(=O)Nc1cc(Nc2cc(OC(C)C)cc(S(C)(=O)=O)n2)c(-c2ccc3nccn3n2)cn1` [Example Q5, N-(5-(imidazo[1,2-b]pyridazin-6-yl)-4-((4-isopropoxy-6-(methylsulfonyl)pyridin-2-yl)amino)pyridin-2-yl)acetamide] has an IC50 [1] of 0.065 nM.
Work on `CC(=O)Nc1cc(Nc2cc(C)cc(S(C)(=O)=O)n2)c(-c2ccn(CC(=O)N3CCOCC3)n2)cn1` [Example A13, N-(4-((4-methyl-6-(methylsulfonyl)pyridin-2-yl)amino)-5-(1-(2-morpholino-2-oxoethyl)-1H-pyrazol-3-yl)pyridin-2-yl)acetamide] yielded an IC50 [1] of 0.08 nM.
`CC(=O)Nc1cc(Nc2cc(N3CC4CC4C3)cc(S(C)(=O)=O)n2)c(-c2ccc3c(n2)OCC(C)(C)O3)cn1` (centres unmarked) [Example Q106, N-(4-((4-(3-azabicyclo[3.1.0]hexan-3-yl)-6-(methylsulfonyl)pyridin-2-yl)amino)-5-(2,2-dimethyl-2,3-dihydro-[1,4]dioxino[2,3-b]pyridin-6-yl)pyridin-2-yl)acetamide] was tested, and the IC50 [1] was 0.015 nM.
`COc1cc(Nc2cc(NC(C)=O)ncc2-c2ccc(C(C)(C)O)cn2)cc(S(C)(=O)=O)c1` [Example H4, N-(5-(2-hydroxypropan-2-yl)-4′-((3-methoxy-5-(methylsulfonyl)phenyl)amino)-[2,3′-bipyridin]-6′-yl)acetamide] showed an IC50 [1] of 0.047 nM.
In the case of `CC(=O)Nc1cc(Nc2cc(C3CCOC3)cc(S(C)(=O)=O)n2)c(-c2ccc3c(n2)OCC(C)(C)O3)cn1` (centres unmarked) [Example Q86, N-(5-(2,2-dimethyl-2,3-dihydro-[1,4]dioxino[2,3-b]pyridin-6-yl)-4-((6-(methylsulfonyl)-4-(tetrahydrofuran-3-yl)pyridin-2-yl)amino)pyridin-2-yl)acetamde], the IC50 [1] is reported as 0.031 nM.
For `CC(=O)Nc1cc(Nc2cc(N3CCC4(CC4)C3)cc(S(C)(=O)=O)n2)c(-c2ccc3c(n2)OCC(C)(C)O3)cn1` [Example Q97, N-(5-(2,2-dimethyl-2,3-dihydro-[1,4]dioxino[2,3-b]pyridin-6-yl)-4-((6-(methylsulfonyl)-4-(5-azaspiro[2.4]heptan-5-yl)pyridin-2-yl)amino)pyridin-2-yl)acetamide], the IC50 (pSTAT5/GM-CSF) was > 10000 nM, the “Selectivity fold (TYK2/JAK2)” value (pSTAT5/GM-CSF) was >3039 fold and the IC50 [2] was 3.29 nM.
With `CCOc1cc(Nc2cc(NC(C)=O)ncc2-c2ccc(C(F)(F)F)cn2)nc(S(C)(=O)=O)c1` [Example F10, N-(4′-((4-ethoxy-6-(methylsulfonyl)pyridin-2-yl)amino)-5-(trifluoromethyl)-[2,3′-bipyridin]-6′-yl)acetamide] the IC50 [1] was 0.04 nM.
In the case of `COCCOc1cc(Nc2cc(NC(C)=O)ncc2-c2ccccn2)nc(S(C)(=O)=O)c1` [Example B6, N-(4′-((4-(2-methoxyethoxy)-6-(methylsulfonyl)pyridin-2-yl)amino)-[2,3′-bipyridin]-6′-yl)acetamide], the IC50 (pSTAT5/GM-CSF) is reported as > 10000 nM, the “Selectivity fold (TYK2/JAK2)” value ([2]; Cellular assay, pSTAT5/GM-CSF IC50 vs pSTAT4/IL-12 IC50) is reported as >8264 fold and the IC50 [2] is reported as 1.21 nM.
`CC(=O)Nc1cc(Nc2nc(S(C)(=O)=O)ccc2C2CCOCC2)c(-c2ccc3c(n2)OCC(C)(C)O3)cn1` [Example Q90, N-(5-(2,2-dimethyl-2,3-dihydro-[1,4]dioxino[2,3-b]pyridin-6-yl)-4-((6-(methylsulfonyl)-3-(tetrahydro-2H-pyran-4-yl)pyridin-2-yl)amino)pyridin-2-yl)acetamide] was tested, and the IC50 (pSTAT5/GM-CSF) was > 10000 nM, the “Selectivity fold (TYK2/JAK2)” value (pSTAT5/GM-CSF) was >227 fold and the IC50 [2] was 44 nM.
`CC(=O)Nc1cc(Nc2cc(-c3nccnc3C)cc(S(C)(=O)=O)n2)c(-c2ccc3c(n2)OCC(C)(C)O3)cn1` [Example Q110, N-(5-(2,2-dimethyl-2,3-dihydro-[1,4]dioxino[2,3-b]pyridin-6-yl)-4-((4-(3-methylpyrazin-2-yl)-6-(methylsulfonyl)pyridin-2-yl)amino)pyridin-2-yl)acetamide] was tested, and the IC50 (pSTAT5/GM-CSF) was > 10000 nM, the “Selectivity fold (TYK2/JAK2)” value (pSTAT5/GM-CSF) was >9259 fold and the IC50 [2] was 1.08 nM.
In the case of `CC(=O)Nc1cc(Nc2cc(-c3ccc(C#N)nc3)cc(S(C)(=O)=O)n2)c(-c2ccc3c(n2)OCC(C)(C)O3)cn1` [Example Q108, N-(4-((6-cyano-6′-(methylsulfonyl)-[3,4′-bipyridin]-2′-yl)amino)-5-(2,2-dimethyl-2,3-dihydro-[1,4]dioxino[2,3-b]pyridin-6-yl)pyridin-2-yl)acetamide], the IC50 (pSTAT5/GM-CSF) is reported as > 10000 nM, the “Selectivity fold (TYK2/JAK2)” value (pSTAT5/GM-CSF) is reported as >8474 fold and the IC50 [2] is reported as 1.18 nM.
